According to patent US20250281456A1, “METHODS OF TREATING CANCER BY INHIBITING BACTERIAL DNAK TO RESTORE ACTIVITIES OF ANTICANCER DRUGS” (University of Maryland, Baltimore, priority 2022, published 2025):
Like-named read-outs stand apart in the source and are kept apart here.

Key:
[1] = test system: HCT116 cells infected with Mycoplasma; experiment: Cell viability of Mycoplasma-infected HCT116 cells (LIVE/DEAD kit); assay type: cell-based, human; conditions: 5FU or Nutlin-3, 48 hours
Procedure: FIG. 2. DnaK negatively affects p53 activities and Mycoplasma infection reduces the effect of anti-cancer drugs. (A) DnaK reduces p53-associated activities in HCT116 cells. Levels of p53, p21, Bax and PUMA proteins were analyzed in control, vector and DnaK transfected cells at different time-points (2, 8 and 16 hours). Expression of DnaK was verified using the anti-V5 antibody. NT: not transfected; VT: vector transfected; DnaK: DnaK transfected; M: media; D: DMSO; N: Nutlin. β-act: β-actin. Band intensity was measured by densitometric analysis. Numbers above bands indicate fold increase above level of nutlin-treated DnaK-transfected cells, normalized for the levels of β-actin. (B) DnaK increases cell cycle progression. HCT116 cells were transfected with a DnaK-expressing vector and subsequently analyzed for cell cycle progression. Data were collected 16-24 hours after transfection. Results represent mean and standard deviations of 5 different experiments. […] Results are expressed as percent cell viability over control (uninfected cells in media alone were considered as 100%). Mean difference is shown. *=p<0.001—calculated using Poisson regression.
HCT116 cells (colon carcinoma cell line) were obtained from ATCC. […] In all experiments cell viability was calculated as a percentage relative to the control cultures. […]

AGS cells = experiment: cells; conditions: Homo sapiens, 48 h
Procedure: (§1) FIG. 11. […] Parallel wells of untreated cells were used as negative control. Cell viability was assessed by using the trypan blue assay. Percentage of alive cells for each treatment are calculated as percentage using the untreated cell as reference. […] Statistical differences were tested using Student's t test. All statistical tests were two sided. p=***<0.001, **<0.01, *<0.05, ns=not significant.
as §1, with “14.” for “11.”, “p=*<0.05,” for “p=***<0.001,”, “***<0.001.” for “*<0.05, ns=not significant.”
(§2) To determine the effects of eM and eF-DnaKs on HCT116 and AGS cells lines treated with different anti-cancer drugs, cells were plated 200,000 cells/well in 6-wells plates. After 24 h, both eM-DnaK and eF-DnaK were added to the cultures at a concentration of 10 ug/ml. […] Parallel cultures of untreated cells were the negative controls. […] After 48 h of treatment with the anti-cancer drugs, cell monolayers were washed in PBS, trypsinized and cell viability was measured using the trypan blue assay. The trypan blue exclusion assay allows for a direct identification and enumeration of live (unstained) and dead (blue) cells in the given population.
(§3) More in detail, we pre-treated both exogenous DnaKs with ARV-1502 (25 μg/ml) before adding them to the culture of HCT116 or AGS cells. After 3 h of incubation the complex was added to the culture. After 24 h the cells were treated with the anti-cancer drugs and then subjected to count with trypan blue as previously described. Parallel cultures of cells treated with the drugs and DnaKs not complexed with ARV-1502 were used as control.

HCT116 cells [2] = experiment: cells; conditions: Homo sapiens, HCT-116, 48 h, 48 h
Procedure: as §1
as §1, with “14.” for “11.”, “p=*<0.05,” for “p=***<0.001,”, “***<0.001.” for “*<0.05, ns=not significant.”
as §2, §3

[3] = test system: primary murine cancer cells constitutively expressing DnaK; experiment: cells; conditions: Mus musculus, read-out: cell viability
HCT116 cells [4] = experiment: HCT116 cell viability (trypan blue) with cisplatin, exogenous DnaKs and DnaK inhibitor (Example 4); assay type: cell-based, human
Procedure: After 24 h, both eM-DnaK and eF-DnaK were added to the cultures at a concentration of 10 ug/ml. […] Parallel cultures of untreated cells were the negative control. […] After 48 h of treatment with the anti-cancer drugs, cell monolayers were washed in PBS, trypsinized and cell viability was measured using the trypan blue assay. The trypan blue exclusion assay allows for a direct identification and enumeration of live (unstained) and dead (blue) cells in the given population.
More in detail, we pre-treated both DnaKs with Telaprevir (25 μg/ml) before adding them to the culture of HCT116 cells. After 3 h of incubation the complex was added to the culture. After 24 h the cells were treated with the anti-cancer drugs and then subjected to count with trypan blue as previously described. Parallel cultures of cells treated with the drugs and DnaKs not complexed with Telaprevir were used as control.

M. tuberculosis DnaK = M. tuberculosis DnaK (Mycobacterium tuberculosis, UniProt P9WMJ9); conditions: previously demonstrated; cited from earlier work
[5] = target: Recombinant purified exogenous Mycoplasma fermentans DnaK-V5 protein (eM-DnaK) (Mycoplasma fermentans); experiment: SPR (BIAcore T100), eM-DnaK immobilized on CM5 chip (2274.9 RU), ARV-1502 as analyte
[6] = target: Mycoplasma fermentans DnaK-V5, expressed inside cells (codon-optimized DnaK vector transfected into (Mycoplasma fermentans)); experiment: cell-based or functional assay

O=c1[nH]cc(F)c(=O)[nH]1 [5FU, 5-Fluorouracil]
effect of Mycoplasma infection on drug activity (cell viability) [1]: resistance to these anti-cancer drugs
viability at 75 µM (AGS cells; read-out: cell viability, AGS, drug alone (eF-DnaK experiment), Cisplatin 2 μM or 5FU 75 μM, 48 h, % of untreated cells): 31%
viability at 75 µM (AGS cells; read-out: cell viability, AGS, drug alone (eM-DnaK experiment), Cisplatin 25 μM or 5FU 75 μM, 48 h, % of untreated cells): 15%
viability at 75 µM (AGS cells; read-out: cell viability, AGS, drug in the presence of eF-DnaK (10 ug/ml), Cisplatin 2 μM or 5FU 75 μM, 48 h): 42%
viability at 75 µM (AGS cells; read-out: cell viability, AGS, drug in the presence of eM-DnaK (10 ug/ml), Cisplatin 25 μM or 5FU 75 μM, 48 h): 33%
viability at 75 µM (HCT116 cells [2]; read-out: cell viability, HCT116, drug alone (eF-DnaK experiment), Cisplatin 2 μM or 5FU 75 μM, % of untreated cells): 14%
viability at 75 µM (HCT116 cells [2]; read-out: cell viability, HCT116, drug alone (eM-DnaK experiment), Cisplatin 25 μM or 5FU 75 μM, % of untreated cells): 14%
viability at 75 µM (HCT116 cells [2]; read-out: cell viability, HCT116, drug in the presence of eF-DnaK (10 ug/ml), Cisplatin 2 μM or 5FU 75 μM): 17%
viability at 75 µM (HCT116 cells [2]; read-out: cell viability, HCT116, drug in the presence of eM-DnaK (10 ug/ml), Cisplatin 25 μM or 5FU 75 μM): 16%
viability at 75 µM [3]: 55%

COc1ccc(C2=N[C@@H](c3ccc(Cl)cc3)[C@@H](c3ccc(Cl)cc3)N2C(=O)N2CCNC(=O)C2)c(OC(C)C)c1 [Nutlin, Nutlin-3]
effect of Mycoplasma infection on drug activity (cell viability) [1]: resistance to these anti-cancer drugs

CCC[C@H](NC(=O)[C@@H]1[C@H]2CCC[C@H]2CN1C(=O)[C@@H](NC(=O)[C@@H](NC(=O)c1cnccn1)C1CCCCC1)C(C)(C)C)C(=O)C(=O)NC1CC1 [Telaprevir, (3S,3aS,6aR)-2-[(2S)-2-[[(2S)-2-cyclohexyl-2-(pyrazine-2-carbonylamino)acetyl]amino]-3,3-dimethylbutanoyl]-N-[(3S)-1-(cyclopropylamino)-1,2-dioxohexan-3-yl]-3,3a,4,5,6,6a-hexahydro-1H-cyclopenta[c]pyrrole-3-carboxamide]
restoration of cisplatin anti-cancer activity (HCT116 cells [4]; HCT116, cisplatin in the presence of eM-DnaK or eF-DnaK pre-treated with Telaprevir (25 μg/ml)): restoration of the original anti-cancer activity
DnaK binding and ATPase activity (M. tuberculosis DnaK): bind to M. tuberculosis DnaK substrate-binding domain and to reduce its ATPase activity

COc1cc(C(=O)NS(=O)(=O)c2ccccc2C)ccc1Cc1cn(C)c2ccc(NC(=O)OC3CCCC3)cc12 [Zafirlukast, zafirlukast]
restoration of cisplatin anticancer activity (HCT116 cells [4]; HCT116, cisplatin in the presence of DnaK from M. fermentans and F. nucleatum (FIG. 9)): restores anticancer activity of cisplatin

N.N.[Cl][Pt][Cl] [cisplatin]
blunting of the anti-cancer effect of the drug (HCT116 cells [4]; HCT116, cisplatin in the presence of eM-DnaK or eF-DnaK): 40-50%

ARV-1502 (peptide)
Kd [5]: 1900 nM
cell viability of DnaK-expressing primary murine cancer cells, 5FU plus ARV-1502 [6]: 40%
